Two compounds from patent US20070088069A1, “Novel imidazoles” (Warner-Lambert Company LLC, priority 2005, published 2007) can be followed below.

Assay [1] concerns Sterol Biosynthesis in L6 Rat Myoblast. As to the kind of experiment: Sterol biosynthesis in L6 rat myoblast (14C acetic acid into cholesterol). The assay is classed as cell-based. The settings on record: 3 hours pre-incubation, 3 hours 14C acetic acid labeling. The method, then:
L6 rat myoblast purchased from ATCC(CRL-1458) were grown in T-150 vented culture flasks and seeded on 12-well culture plates at a density of 60,000 cells per well. The cells were grown in DMEM, (Dulbecco's Modified Eagle Medium) (Gibco, #10567-014) containing 10% heat inactivated FBS (Fetal Bovine Serum) (Gibco # 10082-139) for 72 hours until reaching confluence. The cells were pre-incubated in media with compound and 0.2% DMSO (dimethyl sulfoxide) for 3 hours and then labeled by incubating in medium containing compound, 0.2% DMSO and 1 μCi/per mL of ^14C acetic acid for an additional 3 hours. After labeling, the cells were washed once with 1×PBS (Gibco #14190-144) then lysed overnight at 4° C. in buffer containing 10% KOH and 78% (vol.) ethanol.
Lipid ester bonds were hydrolyzed by saponification of the lysates at 60° C. for 2 hours. […] The amount of ^14C cholesterol was quantified by scintillation counting in a Trilux 1450 plate reader (Wallac). The IC50 values were calculated from % inhibitions relative to negative controls vs. compound concentration on Microsoft excel 2000 data analysis wizard using a sigmoid inhibition curve model with formula: y=Bmax(1−(x^n/K^n+x^n))+y2 Where K is the IC50 for the inhibition curve, X is inhibitor concentration, Y is the response being inhibited and Bmax+Y2 is the limiting response as X approaches zero.

Assay [2] has as its target T1, HMGCoA (3-Hydroxy-3-methylglutaryl CoA) Reductase (Rattus norvegicus, UniProt P51639).
T1 construct: from tissue; host or cells: liver microsomes of male Sprague-Dawley rats fed cholestyramine
T1 sequence (P51639 1-887): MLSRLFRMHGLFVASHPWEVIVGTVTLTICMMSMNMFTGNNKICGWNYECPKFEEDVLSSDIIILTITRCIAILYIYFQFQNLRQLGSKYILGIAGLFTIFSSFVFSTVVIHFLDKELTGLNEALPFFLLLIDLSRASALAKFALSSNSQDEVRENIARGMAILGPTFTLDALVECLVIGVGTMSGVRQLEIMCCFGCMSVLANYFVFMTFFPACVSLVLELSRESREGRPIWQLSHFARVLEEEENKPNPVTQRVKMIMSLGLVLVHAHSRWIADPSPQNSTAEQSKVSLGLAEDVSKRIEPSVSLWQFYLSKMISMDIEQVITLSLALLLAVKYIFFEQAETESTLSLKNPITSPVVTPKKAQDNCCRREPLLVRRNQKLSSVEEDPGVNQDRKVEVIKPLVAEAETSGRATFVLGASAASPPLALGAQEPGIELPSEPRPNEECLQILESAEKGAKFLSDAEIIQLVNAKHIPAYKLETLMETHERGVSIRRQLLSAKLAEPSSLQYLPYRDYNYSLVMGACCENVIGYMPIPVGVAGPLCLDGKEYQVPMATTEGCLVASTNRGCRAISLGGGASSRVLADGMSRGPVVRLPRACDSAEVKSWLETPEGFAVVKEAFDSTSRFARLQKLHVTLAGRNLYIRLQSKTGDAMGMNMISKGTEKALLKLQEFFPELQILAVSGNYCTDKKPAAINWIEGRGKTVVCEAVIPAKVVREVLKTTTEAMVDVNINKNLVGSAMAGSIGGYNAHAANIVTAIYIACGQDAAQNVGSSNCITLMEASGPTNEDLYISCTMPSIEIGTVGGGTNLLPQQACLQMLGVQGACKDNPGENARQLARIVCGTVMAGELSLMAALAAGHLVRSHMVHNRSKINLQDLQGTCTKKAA
The experiment in a line: HMGCoA reductase assay with rat liver microsomes. The assay is classed as biochemical. As to conditions: 14C-HMGCoA, 45 min at 37° C., read-out: IC50 in the in vitro HMGCoA reductase assay. The method, then: Male Charles River Sprague-Dawley rats were fed with 2.5% cholestyramine in rat chow diets for 5 days before sacrificing. Livers were minced and homogenized in a sucrose homogenizing solution in an ice bath 10 times. Homogenates were diluted into a final volume of 200 mL, and centrifuged 15 min. with a Sorvall Centrifuge at 5° C., 10,000 rpm (12,000×G). The upper fat layer was removed and the supernatant decanted into fresh tubes. This step was repeated one more time before transferring the supernatant into ultracentrifuge tubes and centrifuged at 36,000 rpm (105,000×G) for an hour at 5° C. The resulting supernatant was discarded and the pellet was added to total of 15 mL 0.2 M KH2PO4. Pellets were homogenized gently by hand about 10 times. Samples were pooled and diluted into total of 60 mL buffer. The protein concentration of the homogenate was determined by the […] using a BCA (Bicinchoninic acid), kit from Pierce Chemical Company. 1 mL aliquots of microsomes were kept frozen in liquid nitrogen.
[3-^14C]-HMGCoA (57.0 mCi/mmol) was purchased from Amersham Biosciences, UK. […] Scintillation cocktail (Ultima-Flo-M) was added into each well and plates counted on a Trilux Microbeta Counter. The IC50 values were calculated with GraphPad software (Prism). […]
In general terms: Microsomes from liver hold many membrane-bound enzymes, among them those of drug oxidation.

For assay [3], the system named is Sterol Biosynthesis in Rat Hepatocytes. As to the kind of experiment: Sterol biosynthesis in rat hepatocytes (14C acetic acid into cholesterol). It is filed as cell-based. As to conditions: Hepatocyte, 4 hrs pre-incubation, 4 hrs 14C acetic acid labeling, read-out: IC50 in the cell assay (sterol biosynthesis in rat hepatocytes). The method, then:
Frozen rat hepatocytes purchased from XenoTech (cat# N400572) were seeded on 6-well collagen I coated plates at a density of 10^5 cells/per well. The cells were grown in DMEM, (Dulbecco's Modified Eagle Medium) (Gibco, #11054-020) containing 10% FBS (Fetal Bovine Serum) and 10 mM HEPES, (N-2-hydroxyethyl-piperazine-N^1-2-ethane sulfonic acid) (Gibco # 15630-080) for 24 hrs. The cells were pre-incubated with compounds for 4 hrs and then labeled by incubating in medium containing 1 μCi/per mL of ^14C acetic acid for an additional 4 hrs. After labeling, the cells were washed twice with 5 mM MOPS, (3-[N-morpholino]propane sulfonic acid) solution containing 150 mM NaCl and 1 mM EDTA and collected in the lysis buffer containing 10% KOH and 80% (vol.) ethanol.
In order to separate labeled cholesterol from labeled non-cholesterol lipids, the cells lysates were subject to saponification at 60° C. for 2 hrs. The lysates were then combined with 0.5 volume of H2O and 2 volumes of hexane, followed by 30 minutes of vigorous shaking. After the separation of two phases, the upper-phase solution was collected and combined with 5 volumes of scintillation cocktail. The amount of ^14C cholesterol was quantified by liquid scintillation counting. The IC50 values were calculated with GraphPad software (Prism 3.03).

pIC50: −log10 of the molar value.

Usually pIC50 stands for the IC50 on a negative log10 scale, so that one unit is a factor of ten. In turn, `C[C@@H](NC(=O)c1nc(-c2ccc(F)cc2)n(CC[C@@H](O)C[C@@H](O)CC(=O)O)c1C1CC1)c1ccccc1` [Example 1, Sodium: (3R,5R)-7-[5-Cyclopropyl-2-(4-fluoro-phenyl)-4-((R)-1-Phenyl-ethylcarbamoyl)-imidazol-1-yl]-3,5-dihydroxy-heptanoate] showed a pIC50 in assay [1] of 6.35.
On to `C[C@H](c1ccccc1)N(C)C(=O)c1nc(-c2ccc(F)cc2)n(CC[C@@H](O)C[C@@H](O)CC(=O)O)c1C1CC1` [Example 2, Sodium; (3R,5R)-7-{5-Cyclopropyl-2-(4-fluoro-phenyl)-4-[methyl-((R)-1-phenyl-ethyl)-carbamoyl]-imidazol-1-yl}-3,5-dihydroxy-heptanoate], for which the negative logarithm of the IC50 (pIC50) in assay [2] was 7.43; in assay [3], 9.57.
